Measured values reported in patent US10131649B2, “Bicyclic compounds as pest control agents” (BAYER CROPSCIENCE AKTIENGESELLSCHAFT, priority 2014, dated 2018).
Where two headings read alike, the source gives them in different places.

Legend:
[1] = tested on: green peach aphid (Myzus persicae); assay: Myzus persicae spray test (Chinese cabbage leaf discs); format: in vivo; details: foliar, 144 h, read-out: efficacy in %
Procedure: (§1) Myzus persicae—Spray Test
Solvent: • 78 parts by weight of acetone • 1.5 parts by weight of dimethylformamide
(§2) Emulsifier: alkylaryl polyglycol ether
(§3) To produce a suitable preparation of active compound, 1 part by weight of active compound is dissolved using the specified parts by weight of solvent and made up with water containing an emulsifier concentration of 1000 ppm until the desired concentration is attained. To produce further test concentrations, the formulation is diluted with emulsifier-containing water.
Discs of Chinese cabbage leaves (Brassica pekinensis) infested by all stages of the green peach aphid (Myzus persicae) are sprayed with an active compound formulation of the desired concentration.
After 6 days, the efficacy in % is determined. 100% means that all the aphids have been killed; 0% means that no aphids have been killed.

[2] = log P by HPLC on reversed-phase columns (OECD Guideline 117), [a] acidic pH 2.7, [b] neutral pH 7.8; format: physicochemical; details: reversed-phase (C18) HPLC column
Procedure: The log P values were determined in accordance with OECD Guideline 117 (EC Directive 92/69/EEC) by HPLC (high-performance liquid chromatography) using reversed-phase (RP) columns (C18), by the following methods:
[a] The LC-MS determination in the acidic range is carried out at pH 2.7 with 0.1% aqueous formic acid and acetonitrile (contains 0.1% formic acid) as eluents; linear gradient from 10% acetonitrile to 95% acetonitrile.
[b] LC-MS determination in the neutral range is effected at pH 7.8 with 0.001 molar aqueous ammonium hydrogencarbonate solution and acetonitrile as eluents; linear gradient from 10% acetonitrile to 95% acetonitrile.
Calibration is carried out using unbranched alkan-2-ones (having 3 to 16 carbon atoms) with known log P values (log P values determined on the basis of the retention times by linear interpolation between two successive alkanones).

[3] = tested on: nematode larvae (Cooperia curticei); assay: Cooperia curticei test; format: in vivo; details: application rate 20 ppm; after 5 days; 100% = all larvae killed
Procedure: (§4) Solvent: dimethyl sulphoxide
(§5) To produce a suitable preparation of active compound, 10 mg of active compound are mixed with 0.5 ml of dimethyl sulfoxide and the concentrate is diluted with “Ringer's solution” to the desired concentration.
Vessels containing the active compound preparation of the desired concentration are populated with about 40 nematode larvae (Cooperia curticei).
(§6) After 5 days, the kill in % is determined. 100% means that all the larvae have been killed; 0% means that none of the larvae have been killed.

[4] = tested on: larvae of the red stomach worm (Haemonchus contortus); assay: Haemonchus contortus test; format: in vivo; details: application rate 20 ppm; after 5 days; 100% = all larvae killed
Procedure: Haemonchus contortus—Test
as §4, §5
Vessels containing the active compound preparation of the desired concentration are populated with about 40 larvae of the red stomach worm (Haemonchus contortus).
as §6

[5] = tested on: green peach aphid (Myzus persicae); assay: Myzus persicae spray test (bell pepper plants); format: in vivo; details: application rate 4 ppm, after 6 days, 100% = all aphids killed
Procedure: as §1
Solvent: 7 parts by weight of dimethylformamide
as §2
as §3, with “water. If the addition of ammonium salts or/and penetrants is required, these are each added in a concentration of 1000 ppm to the formulation solution.” for “water.”
Bell pepper plants (Capsicum annuum) severely infested with the green peach aphid (Myzus persicae) are treated by spraying with the active compound formulation in the desired concentration.
After 6 days, the kill in % is determined. 100% means that all of the aphids have been killed; 0% means that none of the aphids have been killed.

[6] = tested on: greenhouse red spider mite (Tetranychus urticae); assay: Tetranychus urticae spray test, OP-resistant; format: in vivo; details: application rate 500 g/ha; after 6 days; bean leaf discs; 100% = all spider mites killed
Procedure: Tetranychus urticae—Spray Test, OP-Resistant
(§7) Solvent: • 78.0 parts by weight of acetone • 1.5 parts by weight of dimethylformamide
as §2, §3
Discs of bean leaves (Phaseolus vulgaris) infested with all stages of the greenhouse red spider mite (Tetranychus urticae) are sprayed with an active compound formulation of the desired concentration.
After 6 days, the efficacy in % is determined. 100% means that all the spider mites have been killed; 0% means that no spider mites have been killed.

[7] = tested on: larvae of the mustard beetle (Phaedon cochleariae); assay: Phaedon cochleariae spray test; format: in vivo; details: application rate 500 g/ha; after 7 days; 100% = all beetle larvae killed
Procedure: Phaedon cochleariae—Spray Test
as §7, §2, §3
Discs of Chinese cabbage leaves (Brassica pekinensis) are sprayed with an active compound preparation of the desired concentration and, after drying, populated with larvae of the mustard beetle (Phaedon cochleariae).
After 7 days, the efficacy in % is determined. 100% means that all the beetle larvae have been killed; 0% means that no beetle larvae have been killed.

[8] = tested on: caterpillars of the armyworm (Spodoptera frugiperda); assay: Spodoptera frugiperda spray test; format: in vivo; details: application rate 500 g/ha; after 7 days; maize leaf discs; 100% = all caterpillars killed
Procedure: Spodoptera frugiperda—Spray Test
as §7, §2, §3
Leaf discs of maize (Zea mays) are sprayed with an active compound formulation of the desired concentration and, after drying, populated with caterpillars of the armyworm (Spodoptera frugiperda).
After 7 days, the efficacy in % is determined. 100% means that all the caterpillars have been killed; 0% means that no caterpillar has been killed.

[9] = tested on: southern root-knot nematode (Meloidogyne incognita); assay: Meloidogyne incognita test; format: in vivo; details: application rate 20 ppm; after 14 days; lettuce; 100% = no galls found
Procedure: Meloidogyne incognita—Test
Solvent: 125.0 parts by weight of acetone
To produce a suitable active compound preparation, 1 part by weight of active compound is mixed with the stated amount of solvent and the concentrate is diluted with water to the desired concentration.
Vessels are filled with sand, active compound solution, an egg/larvae suspension of the southern root-knot nematode (Meloidogyne incognita) and lettuce seeds. The lettuce seeds germinate and the plants develop. The galls develop on the roots.
After 14 days, the nematicidal efficacy in % is determined by the formation of galls. 100% means that no galls were found; 0% means that the number of galls on the treated plants corresponds to the untreated control.

[10] = acidic pH 2.7, read-out: logP[a]
[11] = neutral pH 7.8, read-out: logP[b]

c1cncc(-c2ccc3nn(-c4cccnc4)cc3c2)c1 [Example 57, 2,5-Bis(3-pyridyl)indazole]
pest or weed control at 500 g/ha [1]: 90% | chromatographic logP [2, 10]: 0.88 | chromatographic logP [2, 11]: 1.71 | efficacy (kill in %) [3]: 80%

Clc1ccc(-c2ccc3nn(-c4cccnc4)cc3c2)nc1 [Example 67]
pest or weed control at 500 g/ha [1]: 100% | efficacy (kill in %) [4]: 80% | chromatographic logP [2, 10]: 2.8 | chromatographic logP [2, 11]: 2.78 | efficacy (kill in %) [3]: 80%

FC(F)(F)c1ccn(-c2ccc3nn(-c4cccnc4)cc3c2)n1 [Example 56, 2-(3-Pyridyl)-5-[3-(trifluoromethyl)pyrazol-1-yl]indazole]
pest or weed control at 500 g/ha [1]: 90% | chromatographic logP [2, 10]: 2.83 | chromatographic logP [2, 11]: 2.79 | efficacy (kill in %) [3]: 90%

CCSc1ccnc(-c2ccc3nn(-c4cccnc4)cc3c2)c1 [Example 76, 5-[4-(Ethylsulphanyl)pyridin-2-yl]-2-(pyridin-3-yl)-2H-indazole]
pest or weed control at 500 g/ha [1]: 90% | chromatographic logP [2, 10]: 1.62 | chromatographic logP [2, 11]: 2.84 | efficacy (kill in %) [3]: 80%

Cc1cc(C)c(-c2ccc3nn(-c4cccnc4)cc3c2)cc1SCC(F)(F)F [Example 51, 5-[2,4-Dimethyl-5-(2,2,2-trifluoroethylsulphanyl)phenyl]-2-(3-pyridyl)indazole]
efficacy (kill in %) [5]: 100% | pest or weed control at 500 g/ha [1]: 90% | chromatographic logP [2, 10]: 4.42 | chromatographic logP [2, 11]: 4.4

Cc1ccc(-c2ccc3nn(-c4cccnc4)cc3c2)nc1 [Example 65]
pest or weed control at 500 g/ha [1]: 90% | efficacy (kill in %) [4]: 80% | chromatographic logP [2, 10]: 1.23 | chromatographic logP [2, 11]: 2.25 | efficacy (kill in %) [3]: 90%

Cc1cc(F)c(C(=O)N(C)c2ccc3nn(-c4cnn(C)c4)cc3c2)cc1[S+]([O-])CC(F)(F)F (stereo not drawn) [Example 117]
efficacy in % [6]: 90%

Fc1cncc(-n2cc3cc(C(F)(F)F)ccc3n2)c1 [Example 16]
pest or weed control at 500 g/ha [1]: 100% | efficacy in % [7]: 100%

CN(C)C(=O)c1ccc2nn(-c3cnn(C)c3)cc2c1 [Example 38]
efficacy in % [8]: 100% | efficacy in % [7]: 100%

Cc1cc(C)c([S+]([O-])CC(F)(F)F)cc1-c1ccc2nn(-c3cccnc3)cc2c1 (stereo not drawn) [Example 54, 5-[2,4-Dimethyl-5-(2,2,2-trifluoroethylsulphinyl)phenyl]-2-(3-pyridyl)indazole]
pest or weed control at 500 g/ha [1]: 90% | chromatographic logP [2, 10]: 2.99 | chromatographic logP [2, 11]: 2.92

CSCn1ccc(-c2ccc3nn(-c4cccnc4)cc3c2)n1 [Example 62]
pest or weed control at 500 g/ha [1]: 90% | chromatographic logP [2, 10]: 1.97 | chromatographic logP [2, 11]: 2.11

FC(F)(F)Cn1cc(-c2ccc3nn(-c4cccnc4)cc3c2)cn1 [Example 99, 2-(Pyridin-3-yl)-5-[1-(2,2,2-trifluoroethyl)-1H-pyrazol-4-yl]-2H-indazole]
pest or weed control at 500 g/ha [1]: 90% | nematicidal efficacy in % (formation of galls) [9]: 90% | chromatographic logP [2, 10]: 2.12 | chromatographic logP [2, 11]: 2.12

Clc1cccc(-c2ccc3nn(-c4cccnc4)cc3c2)n1 [Example 61]
pest or weed control at 500 g/ha [1]: 100% | chromatographic logP [2, 10]: 2.79 | chromatographic logP [2, 11]: 2.8

Clc1cccnc1-c1ccc2nn(-c3cccnc3)cc2c1 [Example 68]
pest or weed control at 500 g/ha [1]: 100% | chromatographic logP [2, 10]: 2.17 | chromatographic logP [2, 11]: 2.21

CS(=O)(=O)CCNC(=O)c1ccc2nn(-c3cccnc3)cc2c1 [Example 95]
pest or weed control at 500 g/ha [1]: 90% | chromatographic logP [2, 10]: 0.9 | chromatographic logP [2, 11]: 0.95

Cc1ccc(NC(=O)c2ccc3nn(-c4cccnc4)cc3c2)cc1SCC(F)(F)F [Example 82]
pest or weed control at 500 g/ha [1]: 90% | chromatographic logP [2, 10]: 3.22 | chromatographic logP [2, 11]: 3.15

Fc1cccc(-c2ccc3nn(-c4cccnc4)cc3c2)n1 [Example 104]
pest or weed control at 500 g/ha [1]: 90% | nematicidal efficacy in % (formation of galls) [9]: 90% | chromatographic logP [2, 10]: 2.4 | chromatographic logP [2, 11]: 2.44

CN(C(=O)c1ccc2nn(-c3cccnc3)cc2c1)C1CC1 [Example 75, N-Cyclopropyl-N-methyl-2-(pyridin-3-yl)-2H-indazole-5-carboxamide]
pest or weed control at 500 g/ha [1]: 90% | chromatographic logP [2, 10]: 1.47 | chromatographic logP [2, 11]: 1.5

CCSc1cccc(-c2ccc3nn(-c4cccnc4)cc3c2)n1 [Example 79]
pest or weed control at 500 g/ha [1]: 100% | chromatographic logP [2, 10]: 3.57 | chromatographic logP [2, 11]: 3.57

Cc1ccc(-c2ccc3nn(-c4cccnc4)cc3c2)cc1SCC(F)(F)F [Example 50, 5-[4-Methyl-3-(2,2,2-trifluoroethylsulphanyl)phenyl]-2-(3-pyridyl)indazole]
pest or weed control at 500 g/ha [1]: 100% | chromatographic logP [2, 10]: 4.12 | chromatographic logP [2, 11]: 4.07

Cc1cc(C)c([S+]([O-])CC(F)(F)F)cc1NC(=O)c1ccc2nn(-c3cccnc3)cc2c1 (stereo not drawn) [Example 97]
pest or weed control at 500 g/ha [1]: 100% | chromatographic logP [2, 10]: 2.2 | chromatographic logP [2, 11]: 2.22

CCn1cc(-c2ccc3nn(-c4cccnc4)cc3c2)cn1 [Example 73]
pest or weed control at 500 g/ha [1]: 90% | chromatographic logP [2, 10]: 1.81 | chromatographic logP [2, 11]: 1.82

CN(CC(F)(F)F)C(=O)c1ccc2nn(-c3cccnc3)cc2c1 [Example 90]
pest or weed control at 500 g/ha [1]: 90% | chromatographic logP [2, 10]: 1.84 | chromatographic logP [2, 11]: 1.87

Cc1ccc(NC(=O)c2ccc3nn(-c4cccnc4)cc3c2)cc1[S+]([O-])CC(F)(F)F (stereo not drawn) [Example 94, N-{4-Methyl-3-[(2,2,2-trifluoroethyl)sulphinyl]phenyl}-2-(pyridin-3-yl)-2H-indazole-5-carboxamide]
pest or weed control at 500 g/ha [1]: 90% | chromatographic logP [2, 10]: 2.23 | chromatographic logP [2, 11]: 2.23
